Experiments:
barnyard grass [1] = assay: Herbicidal test for paddy field; type: in vivo, Eschinochloa crusgalli; settings: 500 g/ha, dropwise addition to paddy water at 1.5 leaf stage of barnyard grass; glass house 25° C., 3 weeks; rank 0-5 vs non-treated district
Summary of the method: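 Wettable-powder formulations in water with 0.05% surfactant were dripped onto flooded (3 cm) Ube alluvial-soil pots at 500 g/ha, applied at barnyard grass 1.5-leaf stage. Plants were kept in a glasshouse at 25° C. for 3 weeks. Damage was scored 0 (normal) to 5 (all killed) versus untreated plants.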

corn [2] = assay: Soil treatment test for upland field; type: in vivo; parameters: key: 0 = normal development, 5 = all killed; settings: 500 g/ha, 3 weeks, glass house 25° C.
Summary of the method: (§1)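 Read-out is a six-rank visual damage score, from 0 for normal development to 5 for all plants killed, relative to untreated pots. It is taken 3 weeks after the compound, as wettable powder at 500 g/ha, is sprayed onto freshly seeded alluvial soil.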

solgum [3] = assay: Soil treatment test for upland field; type: in vivo; parameters: key: 0 = normal development, 5 = all killed; settings: 500 g/ha, 3 weeks, glass house 25° C.
Summary of the method: as §1

sugar beat [4] = assay: Soil treatment test for upland field; type: in vivo; parameters: key: 0 = normal development, 5 = all killed; settings: 500 g/ha, 3 weeks, glass house 25° C.
Summary of the method: as §1

wheat [5] = assay: Soil treatment test for upland field; type: in vivo; parameters: key: 0 = normal development, 5 = all killed; settings: 500 g/ha, 3 weeks, glass house 25° C.
Summary of the method: as §1

[6] = tested on: common Cocklebur (Xanthium strumarium); assay: Soil treatment test for upland field; type: in vivo; settings: 500 g/ha, 3 weeks, glass house 25° C.
Procedure: (§2) The herbicidal effects are evaluated according to the following 6 ranks as compared with non-treated district. (0: normal development, 1: Less damaged, 2: Slightly damaged, 3: Moderately damaged, 4: Severely damaged, 5: All killed). Incidentally, “-” in the column means not investigated.
(§3) Wagner pots, each having an area of 1/5000 are, were packed with Ube soil (alluvial soil), and then each seed of corn, soybean, cotton, wheat, solgum, sugar beat, Large crabgrass, barnyard grass, green foxtail, blackgrass, annual bluegrass, common lambsquarters, livid amaranth, velvetleaf, morning glory, common Cocklebur (Xanthium strumarium) and sicklepod (Cassia obtusifolia) were planted and covered with soil.
(§4) Each wettable powder of the desired compounds (I) shown in Tables 1 to 21, 24, 25, 28 and 29 prepared in accordance with Example 2 was diluted with water containing a surfactant (0.05%) and uniformly sprayed on the surface of each soil so that an effective concentration of the compound (I) in each herbicide became 500 g/ha.
(§5) These plants were controlled in a glass house at an average temperature of 25° C. for 3 weeks, and then herbicidal effects thereof were investigated.
(§6) The herbicidal effects were evaluated according to the evaluation method described in the above (1).

[7] = tested on: sicklepod (Cassia obtusifolia); assay: Soil treatment test for upland field; type: in vivo; settings: 500 g/ha, 3 weeks, glass house 25° C.
Procedure: as §2, §3, §4, §5, §6

Large crabgrass [8] = assay: Soil treatment test for upland field; type: in vivo, Digitaria adscendens; parameters: key: 0 = normal development, 5 = all killed; settings: 500 g/ha, 3 weeks, glass house 25° C.
Summary of the method: as §1

barnyard grass [9] = assay: Soil treatment test for upland field; type: in vivo, Eschinochloa crusgalli; parameters: key: 0 = normal development, 5 = all killed; settings: 500 g/ha, 3 weeks, glass house 25° C.
Summary of the method: as §1

green foxtail = assay: Soil treatment test for upland field; type: in vivo, Setaria viridis; parameters: key: 0 = normal development, 5 = all killed; settings: 500 g/ha, 3 weeks, glass house 25° C.
Summary of the method: as §1

annual bluegrass [10] = assay: Soil treatment test for upland field; type: in vivo, Poa annua; parameters: key: 0 = normal development, 5 = all killed; settings: 500 g/ha, 3 weeks, glass house 25° C.
Summary of the method: as §1

livid amaranth [11] = assay: Soil treatment test for upland field; type: in vivo, Amaranthus lividus; parameters: key: 0 = normal development, 5 = all killed; settings: 500 g/ha, 3 weeks, glass house 25° C.
Summary of the method: as §1

corn [12] = assay: Foliar spread test for upland field; type: in vivo; parameters: key: 0 = normal development, 5 = all killed (6 ranks vs. untreated); settings: foliar spray, 500 ppm, 3 weeks, glass house 25° C.
Summary of the method: (§7)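 Scores on a 0–5 scale (0 normal development, 5 all killed), relative to untreated controls, were taken 3 weeks post-treatment in a 25 °C glass house. Treatment was a uniform foliar spray at 500 ppm (0.5% surfactant) onto roughly 2-week-old soil-grown plants.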

cotton = assay: Foliar spread test for upland field; type: in vivo; parameters: key: 0 = normal development, 5 = all killed (6 ranks vs. untreated); settings: foliar spray, 500 ppm, 3 weeks, glass house 25° C.
Summary of the method: as §7

solgum [13] = assay: Foliar spread test for upland field; type: in vivo; parameters: key: 0 = normal development, 5 = all killed (6 ranks vs. untreated); settings: foliar spray, 500 ppm, 3 weeks, glass house 25° C.
Summary of the method: as §7

soybean = assay: Foliar spread test for upland field; type: in vivo; parameters: key: 0 = normal development, 5 = all killed (6 ranks vs. untreated); settings: foliar spray, 500 ppm, 3 weeks, glass house 25° C.
Summary of the method: as §7

sugar beat [14] = assay: Foliar spread test for upland field; type: in vivo; parameters: key: 0 = normal development, 5 = all killed (6 ranks vs. untreated); settings: foliar spray, 500 ppm, 3 weeks, glass house 25° C.
Summary of the method: as §7

wheat [15] = assay: Foliar spread test for upland field; type: in vivo; parameters: key: 0 = normal development, 5 = all killed (6 ranks vs. untreated); settings: foliar spray, 500 ppm, 3 weeks, glass house 25° C.
Summary of the method: as §7

Large crabgrass [16] = assay: Foliar spread test for upland field; type: in vivo, Digitaria adscendens; parameters: key: 0 = normal development, 5 = all killed (6 ranks vs. untreated); settings: foliar spray, 500 ppm, 3 weeks, glass house 25° C.
Summary of the method: as §7

annual bluegrass [17] = assay: Foliar spread test for upland field; type: in vivo, Poa annua; parameters: key: 0 = normal development, 5 = all killed (6 ranks vs. untreated); settings: foliar spray, 500 ppm, 3 weeks, glass house 25° C.
Summary of the method: as §7

common lambsquarters = assay: Foliar spread test for upland field; type: in vivo, Chenopodium album; parameters: key: 0 = normal development, 5 = all killed (6 ranks vs. untreated); settings: foliar spray, 500 ppm, 3 weeks, glass house 25° C.
Summary of the method: as §7

livid amaranth [18] = assay: Foliar spread test for upland field; type: in vivo, Amaranthus lividus; parameters: key: 0 = normal development, 5 = all killed (6 ranks vs. untreated); settings: foliar spray, 500 ppm, 3 weeks, glass house 25° C.
Summary of the method: as §7

velvetleaf = assay: Foliar spread test for upland field; type: in vivo, Abutilon theophrasti; parameters: key: 0 = normal development, 5 = all killed (6 ranks vs. untreated); settings: foliar spray, 500 ppm, 3 weeks, glass house 25° C.
Summary of the method: as §7

morning glory = assay: Foliar spread test for upland field; type: in vivo, Ipomoea spps.; parameters: key: 0 = normal development, 5 = all killed (6 ranks vs. untreated); settings: foliar spray, 500 ppm, 3 weeks, glass house 25° C.
Summary of the method: as §7

Cassia obtusifolia = assay: Foliar spread test for upland field; type: in vivo; parameters: key: 0 = normal development, 5 = all killed; settings: foliar spray, 500 ppm, 3 weeks, glass house 25° C.
Summary of the method: as §7

Xanthium pensylvanicum = assay: Foliar spread test for upland field; type: in vivo; parameters: key: 0 = normal development, 5 = all killed; settings: foliar spray, 500 ppm, 3 weeks, glass house 25° C.
Summary of the method: as §7

Fc1ccc2nc(-c3cccc(Oc4cccc(C(F)(F)F)c4)n3)oc2c1 [I-a-6, 6-(6-fluorobenzoxazol-2-yl)-2-(3-trifluoromethylphenoxy)pyridine]
1: Effects Wheat (wheat [5]) | Effects Sicklepod [7]
5: Effects Sugar beat (sugar beat [4]) | Effects Large crabgrass (Large crabgrass [8]) | Effects Barnyardgrass (barnyard grass [9]) | Effects Green foxtail (green foxtail) | Effects Annual bluegrass (annual bluegrass [10]) | Effects Livid amaranth (livid amaranth [11]) | Effects Soybean (soybean) | Effects Sugar beat (sugar beat [14]) | Effects Large crabgrass (Large crabgrass [16]) | Effects Annual bluegrass (annual bluegrass [17]) | Effects Common lambsquarters (common lambsquarters) | Effects Livid amaranth (livid amaranth [18]) | Effects Velvetleaf (velvetleaf) | Effects Morning glory (morning glory) | Effects Sicklepod (Cassia obtusifolia) | Effects Common Cocklebur (Xanthium pensylvanicum)
0: Effects Corn (corn [2]) | Effects Solgum (solgum [3]) | Effects Common Cocklebur [6]
4: Effects Barnyardgrass (barnyard grass [1])
3: Effects Corn (corn [12]) | Effects Sotton (cotton) | Effects Solgum (solgum [13]) | Effects Wheat (wheat [15])

FC(F)(F)c1cccc(Oc2cccc(-c3nc4cc(Cl)ccc4o3)n2)c1 [I-a-3, 6-(5-chlorobenzoxazol-2-yl)-2-(3-trifluoromethylphenoxy)pyridine]
4: Effects Barnyardgrass (barnyard grass [9]) | Effects Sotton (cotton) | Effects Sugar beat (sugar beat [14]) | Effects Annual bluegrass (annual bluegrass [17]) | Effects Velvetleaf (velvetleaf) | Effects Sicklepod (Cassia obtusifolia) | Effects Common Cocklebur (Xanthium pensylvanicum)
2: Effects Common Cocklebur [6] | Effects Large crabgrass (Large crabgrass [16])
1: Effects Corn (corn [2]) | Effects Solgum (solgum [3]) | Effects Wheat (wheat [5]) | Effects Corn (corn [12]) | Effects Solgum (solgum [13]) | Effects Wheat (wheat [15])
3: Effects Barnyardgrass (barnyard grass [1]) | Effects Soybean (soybean)
5: Effects Sugar beat (sugar beat [4]) | Effects Sicklepod [7] | Effects Large crabgrass (Large crabgrass [8]) | Effects Green foxtail (green foxtail) | Effects Annual bluegrass (annual bluegrass [10]) | Effects Livid amaranth (livid amaranth [11]) | Effects Common lambsquarters (common lambsquarters) | Effects Livid amaranth (livid amaranth [18]) | Effects Morning glory (morning glory)

Fc1ccc2nc(-c3cccc(Oc4ccc(F)c(C(F)(F)F)c4)n3)oc2c1 [I-a-7]
0: Effects Corn (corn [2]) | Effects Solgum (solgum [3]) | Effects Wheat (wheat [5]) | Effects Common Cocklebur [6]
5: Effects Sugar beat (sugar beat [4]) | Effects Large crabgrass (Large crabgrass [8]) | Effects Green foxtail (green foxtail) | Effects Annual bluegrass (annual bluegrass [10]) | Effects Livid amaranth (livid amaranth [11]) | Effects Sugar beat (sugar beat [14]) | Effects Livid amaranth (livid amaranth [18])
1: Effects Barnyardgrass (barnyard grass [1]) | Effects Corn (corn [12])
3: Effects Sicklepod [7] | Effects Sotton (cotton) | Effects Soybean (soybean) | Effects Large crabgrass (Large crabgrass [16]) | Effects Annual bluegrass (annual bluegrass [17]) | Effects Velvetleaf (velvetleaf) | Effects Morning glory (morning glory) | Effects Sicklepod (Cassia obtusifolia)
2: Effects Solgum (solgum [13]) | Effects Wheat (wheat [15])
4: Effects Barnyardgrass (barnyard grass [9]) | Effects Common lambsquarters (common lambsquarters) | Effects Common Cocklebur (Xanthium pensylvanicum)
